Common to all, as to assay: biochemical
Design in all cases: KINOMEscan competition binding, DNA-tagged kinase against immobilised ligand, qPCR read-out
Holding throughout (settings): read-out: Percent Control

Assay [1] concerns the target CDK4-cyclinD3 (Homo sapiens, UniProt P11802).
The target of assay [2] is DDR2 (Homo sapiens, UniProt Q16832).
For assay [3], the target named is MAPKAPK5 (Homo sapiens, UniProt Q8IW41).
Assay [4] has as its target STK3 (Homo sapiens, UniProt Q13188).
The target of assay [5] is ROCK2 (Homo sapiens, UniProt O75116).
In assay [6] the target is LIMK1 (Homo sapiens, UniProt P53667).
For assay [7], the target named is MAP3K3 (Homo sapiens, UniProt Q99759).
In assay [8] the target is IRAK4 (Homo sapiens, UniProt Q9NWZ3).
The target in assay [9] is CDK7 (Homo sapiens, UniProt P50613).
Assay [10] concerns the target EPHB1 (Homo sapiens, UniProt P54762).
In assay [11] the target is PIK3CD (Homo sapiens, UniProt O00329).
Assay [12] has as its target FLT1 (Homo sapiens, UniProt P17948).
Assay [13] addresses HCK (Homo sapiens, UniProt P08631).
For assay [14], the target named is CDK4-cyclinD1 (Homo sapiens, UniProt P11802).
Assay [15] concerns the target CSNK1A1 (Homo sapiens, UniProt P48729).
For assay [16], the target named is CAMK2D (Homo sapiens, UniProt Q13557).
Assay [17] deals with PIK3C3 (Homo sapiens, UniProt Q8NEB9).
The target of assay [18] is ERBB3 (Homo sapiens, UniProt P21860).
Assay [19] addresses DAPK3 (Homo sapiens, UniProt O43293).
Assay [20] has as its target ACVR1B (Homo sapiens, UniProt P36896).

FLT1, sequence (P17948 whole entry): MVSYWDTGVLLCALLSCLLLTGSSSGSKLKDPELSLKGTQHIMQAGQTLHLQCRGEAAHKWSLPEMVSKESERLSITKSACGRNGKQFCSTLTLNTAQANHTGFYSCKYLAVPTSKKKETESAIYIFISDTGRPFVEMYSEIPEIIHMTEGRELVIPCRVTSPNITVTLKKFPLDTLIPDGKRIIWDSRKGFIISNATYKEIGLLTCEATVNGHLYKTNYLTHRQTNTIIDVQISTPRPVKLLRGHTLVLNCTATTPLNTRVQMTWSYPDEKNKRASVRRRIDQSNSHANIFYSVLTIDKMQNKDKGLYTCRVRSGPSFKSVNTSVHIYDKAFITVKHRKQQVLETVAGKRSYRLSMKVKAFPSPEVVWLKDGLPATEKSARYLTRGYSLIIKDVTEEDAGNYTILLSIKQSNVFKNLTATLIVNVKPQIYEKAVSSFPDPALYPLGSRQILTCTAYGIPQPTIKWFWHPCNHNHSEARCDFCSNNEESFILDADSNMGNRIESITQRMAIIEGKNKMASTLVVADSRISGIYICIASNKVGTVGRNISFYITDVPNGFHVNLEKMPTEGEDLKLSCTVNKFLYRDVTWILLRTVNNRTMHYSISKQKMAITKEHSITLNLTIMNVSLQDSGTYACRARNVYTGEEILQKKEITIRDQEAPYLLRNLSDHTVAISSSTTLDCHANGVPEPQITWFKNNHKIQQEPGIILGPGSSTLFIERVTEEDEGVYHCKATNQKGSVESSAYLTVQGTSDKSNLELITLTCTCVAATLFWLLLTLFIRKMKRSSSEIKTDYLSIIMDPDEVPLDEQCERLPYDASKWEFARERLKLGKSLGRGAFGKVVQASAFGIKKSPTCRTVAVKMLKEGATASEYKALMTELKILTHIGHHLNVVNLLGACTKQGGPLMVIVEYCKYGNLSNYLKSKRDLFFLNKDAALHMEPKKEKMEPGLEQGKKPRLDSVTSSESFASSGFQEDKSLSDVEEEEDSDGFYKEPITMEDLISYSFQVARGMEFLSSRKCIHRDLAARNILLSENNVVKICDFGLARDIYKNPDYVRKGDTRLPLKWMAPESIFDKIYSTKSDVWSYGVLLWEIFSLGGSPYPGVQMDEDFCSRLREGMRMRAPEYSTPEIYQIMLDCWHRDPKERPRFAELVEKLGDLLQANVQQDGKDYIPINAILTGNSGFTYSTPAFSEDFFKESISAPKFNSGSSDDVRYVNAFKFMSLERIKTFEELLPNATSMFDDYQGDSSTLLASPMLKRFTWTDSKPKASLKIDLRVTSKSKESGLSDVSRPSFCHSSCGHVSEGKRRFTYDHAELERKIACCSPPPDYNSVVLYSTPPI
PIK3C3, sequence (Q8NEB9 whole entry): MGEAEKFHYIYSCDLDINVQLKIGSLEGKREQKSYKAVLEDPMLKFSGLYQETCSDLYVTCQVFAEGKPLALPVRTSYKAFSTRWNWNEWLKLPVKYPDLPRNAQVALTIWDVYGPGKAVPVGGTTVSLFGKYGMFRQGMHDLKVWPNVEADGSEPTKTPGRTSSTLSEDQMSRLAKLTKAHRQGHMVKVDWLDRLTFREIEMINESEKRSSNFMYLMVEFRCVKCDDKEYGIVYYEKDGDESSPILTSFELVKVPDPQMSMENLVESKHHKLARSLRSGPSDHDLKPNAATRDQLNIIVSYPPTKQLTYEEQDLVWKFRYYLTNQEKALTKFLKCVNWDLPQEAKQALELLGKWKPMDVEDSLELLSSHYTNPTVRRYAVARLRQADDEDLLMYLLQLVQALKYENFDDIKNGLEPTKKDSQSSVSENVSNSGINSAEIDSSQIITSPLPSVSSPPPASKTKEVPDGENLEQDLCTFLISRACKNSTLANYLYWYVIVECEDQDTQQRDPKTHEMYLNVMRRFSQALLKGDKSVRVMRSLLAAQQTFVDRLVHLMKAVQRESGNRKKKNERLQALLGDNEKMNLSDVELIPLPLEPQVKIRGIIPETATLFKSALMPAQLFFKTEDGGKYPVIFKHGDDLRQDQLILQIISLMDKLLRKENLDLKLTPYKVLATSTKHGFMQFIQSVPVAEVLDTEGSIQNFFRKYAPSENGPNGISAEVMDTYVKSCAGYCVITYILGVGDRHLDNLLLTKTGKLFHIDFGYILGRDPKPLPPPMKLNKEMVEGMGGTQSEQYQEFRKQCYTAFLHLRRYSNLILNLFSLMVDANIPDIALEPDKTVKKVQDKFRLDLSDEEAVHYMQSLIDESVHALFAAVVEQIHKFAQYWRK
STK3, sequence (Q13188 whole entry): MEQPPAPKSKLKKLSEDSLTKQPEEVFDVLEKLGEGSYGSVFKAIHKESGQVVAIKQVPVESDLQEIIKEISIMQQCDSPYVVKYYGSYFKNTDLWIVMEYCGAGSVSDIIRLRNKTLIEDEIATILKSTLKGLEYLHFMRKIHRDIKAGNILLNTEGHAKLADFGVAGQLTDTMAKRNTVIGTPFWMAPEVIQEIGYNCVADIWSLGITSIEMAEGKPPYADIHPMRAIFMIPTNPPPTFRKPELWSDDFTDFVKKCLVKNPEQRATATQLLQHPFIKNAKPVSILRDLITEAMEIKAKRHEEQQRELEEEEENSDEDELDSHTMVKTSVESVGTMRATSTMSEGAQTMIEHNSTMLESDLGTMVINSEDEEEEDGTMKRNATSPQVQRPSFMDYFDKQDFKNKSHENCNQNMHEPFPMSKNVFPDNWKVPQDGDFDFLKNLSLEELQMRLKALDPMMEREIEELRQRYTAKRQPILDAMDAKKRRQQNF
EPHB1, sequence (P54762 whole entry): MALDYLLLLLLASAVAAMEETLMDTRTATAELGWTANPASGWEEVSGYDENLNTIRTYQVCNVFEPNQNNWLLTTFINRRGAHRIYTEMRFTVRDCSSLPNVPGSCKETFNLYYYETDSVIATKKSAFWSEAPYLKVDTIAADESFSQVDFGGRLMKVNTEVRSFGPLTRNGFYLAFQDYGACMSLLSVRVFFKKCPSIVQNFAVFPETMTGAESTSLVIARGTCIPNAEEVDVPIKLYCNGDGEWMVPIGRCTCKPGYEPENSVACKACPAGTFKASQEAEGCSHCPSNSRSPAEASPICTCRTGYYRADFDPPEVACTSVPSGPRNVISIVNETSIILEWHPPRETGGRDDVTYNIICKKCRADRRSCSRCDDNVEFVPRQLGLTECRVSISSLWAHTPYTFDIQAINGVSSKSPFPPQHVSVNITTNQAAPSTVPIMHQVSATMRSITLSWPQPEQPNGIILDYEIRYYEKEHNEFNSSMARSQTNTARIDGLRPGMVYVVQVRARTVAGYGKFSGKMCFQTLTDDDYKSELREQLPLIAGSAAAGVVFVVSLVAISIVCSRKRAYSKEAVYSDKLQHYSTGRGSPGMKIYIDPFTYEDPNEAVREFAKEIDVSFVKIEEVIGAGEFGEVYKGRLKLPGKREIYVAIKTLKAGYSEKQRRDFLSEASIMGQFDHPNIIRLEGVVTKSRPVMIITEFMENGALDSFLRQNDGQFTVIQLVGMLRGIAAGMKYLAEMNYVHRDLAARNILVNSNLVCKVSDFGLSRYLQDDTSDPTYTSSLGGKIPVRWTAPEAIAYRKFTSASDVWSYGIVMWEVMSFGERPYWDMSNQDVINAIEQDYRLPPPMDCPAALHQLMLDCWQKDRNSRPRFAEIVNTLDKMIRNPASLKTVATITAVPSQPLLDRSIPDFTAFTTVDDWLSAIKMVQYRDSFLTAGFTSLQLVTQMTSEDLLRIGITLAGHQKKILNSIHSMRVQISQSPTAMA
ROCK2, sequence (O75116 whole entry): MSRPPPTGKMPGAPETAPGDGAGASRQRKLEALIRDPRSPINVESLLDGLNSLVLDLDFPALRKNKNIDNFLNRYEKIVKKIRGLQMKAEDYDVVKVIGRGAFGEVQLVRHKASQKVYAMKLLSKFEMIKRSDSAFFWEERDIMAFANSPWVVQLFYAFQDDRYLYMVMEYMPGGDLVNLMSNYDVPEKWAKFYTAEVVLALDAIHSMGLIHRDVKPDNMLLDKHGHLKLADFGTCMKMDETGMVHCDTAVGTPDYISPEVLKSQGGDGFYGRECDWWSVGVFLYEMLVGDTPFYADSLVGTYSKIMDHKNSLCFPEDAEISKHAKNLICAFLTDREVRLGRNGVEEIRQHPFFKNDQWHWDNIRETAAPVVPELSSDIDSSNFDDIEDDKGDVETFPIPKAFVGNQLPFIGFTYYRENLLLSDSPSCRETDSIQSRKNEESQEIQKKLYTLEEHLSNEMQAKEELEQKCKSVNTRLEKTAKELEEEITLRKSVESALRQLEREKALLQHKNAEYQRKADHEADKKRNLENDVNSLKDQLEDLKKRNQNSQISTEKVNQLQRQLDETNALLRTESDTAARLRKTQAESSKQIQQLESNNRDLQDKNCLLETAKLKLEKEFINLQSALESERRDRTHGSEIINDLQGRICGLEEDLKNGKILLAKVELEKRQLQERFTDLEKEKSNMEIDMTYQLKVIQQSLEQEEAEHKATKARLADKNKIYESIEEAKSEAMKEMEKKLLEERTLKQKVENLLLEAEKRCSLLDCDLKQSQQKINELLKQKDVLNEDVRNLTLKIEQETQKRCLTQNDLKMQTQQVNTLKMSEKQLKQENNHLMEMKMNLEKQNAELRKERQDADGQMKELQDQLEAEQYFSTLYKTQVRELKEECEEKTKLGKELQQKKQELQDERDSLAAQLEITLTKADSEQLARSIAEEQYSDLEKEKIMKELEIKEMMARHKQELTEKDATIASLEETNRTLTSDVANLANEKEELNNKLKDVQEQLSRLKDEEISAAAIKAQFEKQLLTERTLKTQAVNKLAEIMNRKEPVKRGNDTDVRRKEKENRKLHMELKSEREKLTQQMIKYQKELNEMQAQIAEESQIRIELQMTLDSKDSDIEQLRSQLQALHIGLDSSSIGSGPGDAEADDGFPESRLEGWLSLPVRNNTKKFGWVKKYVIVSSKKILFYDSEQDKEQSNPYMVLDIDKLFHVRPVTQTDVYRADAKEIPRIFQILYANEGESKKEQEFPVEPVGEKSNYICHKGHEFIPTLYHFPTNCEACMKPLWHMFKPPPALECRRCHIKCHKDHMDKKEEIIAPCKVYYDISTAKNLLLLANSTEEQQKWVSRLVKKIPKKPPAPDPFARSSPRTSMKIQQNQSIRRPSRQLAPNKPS

For the molecule `Oc1ccc(C2=Cc3ccc(O)cc3OC2)cc1` [compound 1, idronoxil], the remaining binding at 10 µM in [1] turned out to be 85%; in [2], 100%; in assay [3] it was 75%; in [4], 93%; in assay [5], 82%; in assay [6] it was 89%. The remaining binding at 10 µM in [7] amounted to 81%; in assay [8], 79%; in assay [9] it was 67%; in assay [10], 84%; in [11] it was 86%; in assay [12], 100%. Further, the remaining binding at 10 µM in assay [13] turned out to be 83%; in assay [14], 94%; in [15], 86%; in [16], 84%; in assay [17], 34%; in [18], 73%. Besides, the figures for the remaining binding at 10 µM in [19] and in assay [20] were 49% and 87%, respectively.
